# Results from patent US10793892B2, “Method for detecting the presence of expanded spectrum β-lactamase-producing bacteria in a sample” (INSERM (INSTITUT NATIONAL DE LA SANTE ET DE LA RECHERCHE …, priority 2011, dated 2020).
# What was measured:
# [1] = system: S. marcescens; assay: ESBL NDP test using spiked blood cultures; format: biochemical, Serratia marcescens; set-up: key: (+) and (−) referred to color change being, red to yellow or unchanged, respectively; (+) and (−) referred to color change being, red to yellow or unchanged, respectively
# Description: (§1) Strains were isolated on Mueller-Hinton agar (Biorad, Marnes-la-Coquette, France) and incubated at 37° C. for 16 h to 24 h before performing the NDP rapid ESBL test as follows. One calibrated inoculated loop (10 μl) of the tested strain was resuspended in 150 μl of 20 mM Tris-HCl lysis buffer previously distributed in Microbead tubes (Ultraclean Microbial DNA isolation kit Bead Tubes, MO BIO Laboratories, Carlsbad, USA). Mechanical lysis of bacteria was performed by strong agitation of Microbead tubes using a vortex adapter (MO BIO Laboratories) for 30 min at room temperature. This bacterial suspension was centrifuged at 10,000×g at room temperature for 5 min. Thirty μl of the supernatant was mixed in a well of a 96-well tray with 100 μl of a 1 ml solution made of 3 mg of purified cefotaxime sodium salt (Sigma-Aldrich, Saint-Quentin-Fallavier, France) in a pH 7.8 phenol red solution. […]. […] Similarly, culture extracts were analyzed in wells containing cefotaxime and tazobactam (4 mg/ml). […]
# (§2) Rapid detection of ESBL producers was attempted from spiked blood cultures which positivity was assessed using the BactAlert blood culture system (bioMérieux). […] Spiked blood cultures were made of 1×10^3 CFU of each strain and incubated 24 to 48 h before a positivity of the blood culture was detected by the BactAlert system. […]
# [2] = system: S. marcescens; assay: Susceptibility testing, MIC by Etest; format: cell-based, Serratia marcescens; conditions: S. marcescens Wild-type, chromosome-encoded cephalosporinase, n=2
# Description: Susceptibility testing was performed by determining MIC values using the Etest® (AB bioMérieux; Solna, Sweden) on Mueller-Hinton agar plates at 37° C. and results were recorded according to US guidelines (CLSI), as updated in 2012 (2). The breakpoints for cefotaxime are susceptible (S)≤1 and resistant (R)≥4 μg/ml, and for ceftazidime S≤4 and R≥16 μg/ml.
# [3] = system: P. stuartii; assay: ESBL NDP test using cultured strains; format: biochemical, Providencia stuartii; set-up: key: (+) and (−) referred to color change being, red to yellow or unchanged, respectively; (+) and (−) referred to color change being, red to yellow or unchanged, respectively; conditions: P. stuartii TEM-24, n=1
# Description: (§3) Strains were isolated on Mueller-Hinton agar (Biorad, Marnes-la-Coquette, France) and incubated at 37° C. for 16 h to 24 h before performing the NDP rapid ESBL test as follows. One calibrated inoculated loop (10 μl) of the tested strain was resuspended in 150 μl of 20 mM Tris-HCl lysis buffer previously distributed in Microbead tubes (Ultraclean Microbial DNA isolation kit Bead Tubes, MO BIO Laboratories, Carlsbad, USA). Mechanical lysis of bacteria was performed by strong agitation of Microbead tubes using a vortex adapter (MO BIO Laboratories) for 30 min at room temperature. This bacterial suspension was centrifuged at 10,000×g at room temperature for 5 min. Thirty μl of the supernatant was mixed in a well of a 96-well tray with 100 μl of a 1 ml solution made of 3 mg of purified cefotaxime sodium salt (Sigma-Aldrich, Saint-Quentin-Fallavier, France) in a pH 7.8 phenol red solution. […]. The phenol red solution was made by taking 2 ml of a concentrated pH 8 phenol solution (made from a mixture of phenol red 0.5% in distilled water) to which 16.6 ml of distilled water was added. The pH value was then adjusted to a 7.8 value by adding drops of a 1 N NaOH solution. Mixture of the phenol red solution and the enzymatic suspension being tested was incubated at 37° C. for 30 min. Similarly, culture extracts were analyzed in wells containing cefotaxime and tazobactam (4 mg/ml). […]
# [4] = system: M. morganii; assay: ESBL NDP test using cultured strains; format: biochemical, Morganella morganii; set-up: key: (+) and (−) referred to color change being, red to yellow or unchanged, respectively; (+) and (−) referred to color change being, red to yellow or unchanged, respectively
# Description: (§4) Strains were isolated on Mueller-Hinton agar (Biorad, Marnes-la-Coquette, France) and incubated at 37° C. for 16 h to 24 h before performing the NDP rapid ESBL test as follows. One calibrated inoculated loop (10 μl) of the tested strain was resuspended in 150 μl of 20 mM Tris-HCl lysis buffer previously distributed in Microbead tubes (Ultraclean Microbial DNA isolation kit Bead Tubes, MO BIO Laboratories, Carlsbad, USA). Mechanical lysis of bacteria was performed by strong agitation of Microbead tubes using a vortex adapter (MO BIO Laboratories) for 30 min at room temperature. This bacterial suspension was centrifuged at 10,000×g at room temperature for 5 min. Thirty μl of the supernatant was mixed in a well of a 96-well tray with 100 μl of a 1 ml solution made of 3 mg of purified cefotaxime sodium salt (Sigma-Aldrich, Saint-Quentin-Fallavier, France) in a pH 7.8 phenol red solution. […]. The phenol red solution was made by taking 2 ml of a concentrated pH 8 phenol solution (made from a mixture of phenol red 0.5% in distilled water) to which 16.6 ml of distilled water was added. The pH value was then adjusted to a 7.8 value by adding drops of a 1 N NaOH solution. Mixture of the phenol red solution and the enzymatic suspension being tested was incubated at 37° C. for 30 min. Similarly, culture extracts were analyzed in wells containing cefotaxime and tazobactam (4 mg/ml). Other concentrations of tazobactam and other ß-lactamase inhibitors were tested giving less clear results (data not shown). […] This definition of test positivity will be applied throughout the study.
# [5] = system: K. oxytoca; assay: ESBL NDP test using cultured strains; format: biochemical, Klebsiella oxytoca; set-up: key: (+) and (−) referred to color change being, red to yellow or unchanged, respectively; (+) and (−) referred to color change being, red to yellow or unchanged, respectively; conditions: K. oxytoca Wild-type penicillinase, n=1
# Description: as §3
# [6] = system: E. cloacae; assay: ESBL NDP test using cultured strains; format: biochemical, Enterobacter cloacae; set-up: key: (+) and (−) referred to color change being, red to yellow or unchanged, respectively; (+) and (−) referred to color change being, red to yellow or unchanged, respectively
# Description: as §4
# [7] = system: S. thyphimurium; assay: ESBL NDP test using spiked blood cultures; format: biochemical; set-up: key: (+) and (−) referred to color change being, red to yellow or unchanged, respectively; (+) and (−) referred to color change being, red to yellow or unchanged, respectively; conditions: S. thyphimurium 10.81, CTX-M-1
# Description: as §1, §2
# [8] = system: P. mirabilis; assay: ESBL NDP test using cultured strains; format: biochemical, Proteus mirabilis; set-up: key: (+) and (−) referred to color change being, red to yellow or unchanged, respectively; (+) and (−) referred to color change being, red to yellow or unchanged, respectively
# Description: as §4
# [9] = system: E. aerogenes; assay: ESBL NDP test using spiked blood cultures; format: biochemical, Enterobacter aerogenes; set-up: key: (+) and (−) referred to color change being, red to yellow or unchanged, respectively; (+) and (−) referred to color change being, red to yellow or unchanged, respectively
# Description: as §1, §2
compound,measurement,setting,value
"CO/N=C(\C(=O)N[C@@H]1C(=O)N2C(C(=O)O)=C(COC(C)=O)CS[C@H]12)c1csc(N)n1 [CTX, cefotaxime]",ESBL NDP Test from: Blood culture,"[1]; S. marcescens BG 1107 4243, Wild-type",−
same,ESBL NDP Test from: Blood culture,"[1]; S. marcescens BN 1201 0816, Wild-type",−
same,MICs range,[2],0.19 to 0.75 µg/mL
same,Test (color change),[3],−
same,ESBL NDP Test from: Colonies,"[4]; M. morganii BG 1106 5902, Wild-type",−
same,ESBL NDP Test from: Colonies,"[4]; M. morganii BG 1117 0617, Wild-type",−
same,Test (color change),"[4]; M. morganii Wild-type, chromosome-encoded cephalosporinase, n=2",−
same,Test (color change),[5],−
same,ESBL NDP Test from: Colonies,"[6]; E. cloacae 09.57, SHV-12",+
same,ESBL NDP Test from: Colonies,"[6]; E. cloacae 10.75, CTX-M-15",+
same,ESBL NDP Test from: Colonies,"[6]; E. cloacae 10.87, CTX-M-15",+
same,ESBL NDP Test from: Colonies,"[6]; E. cloacae BG 1106 7725, Wild-type",−
same,ESBL NDP Test from: Colonies,"[6]; E. cloacae BG 1106 7746, Wild-type",−
same,ESBL NDP Test from: Colonies,"[6]; E. cloacae BG 1107 4118, Wild-type",−
same,Test (color change),"[6]; E. cloacae CTX-M-14, n=1",+
same,Test (color change),"[6]; E. cloacae CTX-M-15, n=17",+
same,Test (color change),"[6]; E. cloacae GES-5, n=1",+
same,Test (color change),"[6]; E. cloacae PER-1, n=1",+
same,Test (color change),"[6]; E. cloacae SHV-5, n=1",+
same,Test (color change),"[6]; E. cloacae SHV-12, n=6",+
same,Test (color change),"[6]; E. cloacae TEM-3, n=2",+
same,Test (color change),"[6]; E. cloacae VEB-1, n=1",+
same,Test (color change),"[6]; E. cloacae Wild-type, chromosome-encoded cephalosporinase, n=5",−
same,Test (color change),"[6]; E. cloacae, overexpressed chromosome-encoded cephalosporinase, n=2",−
same,Test (color change),"[6]; E. cloacae, overexpressed chromosome-encoded cephalosporinase, n=3",+
same,ESBL NDP Test from: Blood culture,[7],+
same,ESBL NDP Test from: Colonies,"[8]; P. mirabilis 09.128, TEM-52",+
same,ESBL NDP Test from: Colonies,"[8]; P. mirabilis 09.177, TEM-21",−
same,Test (color change),"[8]; P. mirabilis ACC-1, n=1",−
same,ESBL NDP Test from: Colonies,"[8]; P. mirabilis BIK, ACC-1",−
same,Test (color change),"[8]; P. mirabilis CTX-M-14, n=1",+
same,Test (color change),"[8]; P. mirabilis CTX-M-15, n=1",+
same,Test (color change),"[8]; P. mirabilis PER-1, n=1",+
same,Test (color change),"[8]; P. mirabilis TEM-21, n=1",+
same,Test (color change),"[8]; P. mirabilis TEM-52, n=1",+
same,ESBL NDP Test from: Blood culture,"[9]; E. aerogenes BN 1113 0225, Wild-type",−
same,ESBL NDP Test from: Blood culture,"[9]; E. aerogenes E2O15, TEM-121",+
